Paper PMC5931594, “Substrate-bound outward-open structure of a Na^+-coupled sialic acid symporter reveals a new Na^+ site” (Nature Communications, 2018)
Read-outs that look alike come from different tables or passages of the source.

Molecular target: T1, SiaT (Proteus mirabilis, UniProt B4EZY7)
T1 construct: full-length, C-terminal HRV 3C site-GFP-8xHis tag cleaved by 3C protease; reconstituted in proteoliposomes for uptake
Assay: microscale thermophoresis, label-free
Type: binding
Settings: PBS, 0.0174% DDM

T1 sequence (B4EZY7 whole entry): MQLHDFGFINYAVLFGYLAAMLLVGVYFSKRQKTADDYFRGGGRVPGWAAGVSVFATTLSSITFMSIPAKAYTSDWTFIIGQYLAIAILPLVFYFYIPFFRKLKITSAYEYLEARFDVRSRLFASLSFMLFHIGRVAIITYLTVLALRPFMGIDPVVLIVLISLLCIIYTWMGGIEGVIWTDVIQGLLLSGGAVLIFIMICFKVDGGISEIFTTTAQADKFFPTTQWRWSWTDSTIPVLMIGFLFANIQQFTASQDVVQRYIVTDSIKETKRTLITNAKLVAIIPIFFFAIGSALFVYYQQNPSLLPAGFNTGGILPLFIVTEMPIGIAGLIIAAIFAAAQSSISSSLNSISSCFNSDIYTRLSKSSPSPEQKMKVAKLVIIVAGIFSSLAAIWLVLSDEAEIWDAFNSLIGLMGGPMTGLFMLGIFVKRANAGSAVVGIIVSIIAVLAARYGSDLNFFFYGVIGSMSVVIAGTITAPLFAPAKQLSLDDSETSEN

Structure (SMILES): O=C(O)C1(O)C[C@H](O)[C@@H](O)[C@H]([C@H](O)[C@H](O)CO)O1 (some centres unmarked) [ketodeoxynonulosonic acid]
- Kd: > 10000 µM

Structure (SMILES): O=C(CO)N[C@H]1[C@H]([C@H](O)[C@H](O)CO)OC(O)(C(=O)O)C[C@@H]1O (some centres unmarked) [N-glycolylneuraminic acid]
- Kd (read-out: Kd^Neu5Gc): 85 ± 2 µM
